Reference: PubChem BioAssay (NCI)
Values joined by “and” are separate entries in the source; they are usually repeats but may differ in a detail not shown here. Equal values may be shown once.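 Compound exposure: 48 hours, 5 concentrations, 96-well plates. GI50 marks 50% less growth. TGI is the concentration that stops growth completely.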

Experiments:
Experiment in all cases: NCI tumour cell line growth inhibition, 48 h
SN12C renal = tested on: SN12C renal
OVCAR-3 ovarian = tested on: OVCAR-3 ovarian
SK-MEL-28 melanoma = tested on: SK-MEL-28 melanoma
ACHN renal = tested on: ACHN renal
HCT-15 colon = tested on: HCT-15 colon
MALME-3M melanoma = tested on: MALME-3M melanoma
RPMI-8226 leukemia = tested on: RPMI-8226 leukemia
LOX IMVI melanoma = tested on: LOX IMVI melanoma
SR leukemia = tested on: SR leukemia
HL-60(TB) leukemia = tested on: HL-60(TB) leukemia

SMILES | TGI (SN12C renal) | TGI (OVCAR-3 ovarian) | TGI (SK-MEL-28 melanoma) | TGI (ACHN renal) | TGI (HCT-15 colon) | TGI (MALME-3M melanoma) | TGI (RPMI-8226 leukemia) | TGI (LOX IMVI melanoma) | GI50 (ACHN renal) | GI50 (MALME-3M melanoma) | GI50 (SR leukemia) | TGI (SR leukemia) | GI50 (HL-60(TB) leukemia) | TGI (HL-60(TB) leukemia) | GI50 (OVCAR-3 ovarian) | GI50 (SK-MEL-28 melanoma) | GI50 (LOX IMVI melanoma) | GI50 (SN12C renal) | GI50 (HCT-15 colon) | GI50 (RPMI-8226 leukemia)
COc1ccccc1C1C(C(=O)Nc2ccccc2)=C(C)NC(C)=C1C(=O)Nc1ccccc1 | > 100 µM | > 100 µM | > 100 µM | > 100 µM | > 100 µM | > 100 µM | > 100 µM | > 100 µM |  |  |  |  |  |  |  |  |  |  |  | 
Nc1ccn(C2O[C@H](CO)[C@@H](O)[C@@H]2O)c(=O)n1 (stereo partly specified) | > 100 µM | > 100 µM | > 100 µM | > 100 µM | > 100 µM | > 100 µM |  | > 100 µM | 42.9 µM | 79.6 µM | > 100 µM | > 100 µM | > 100 µM | > 100 µM |  |  |  |  |  | 
Cc1ccc(S(=O)(=O)C(CC(=O)N2CCCC2)C(=O)c2ccccc2)cc1 (stereo unspecified) | > 100 µM | > 100 µM | > 100 µM | > 100 µM |  | > 100 µM |  | > 100 µM |  |  |  | > 100 µM |  | 52.7 µM |  |  |  |  |  | 
Cc1cc2c(cc1C)[n+](=O)c(C(=O)CC(=O)C(=O)Nc1c(C(C)C)cccc1C(C)C)c(C)n2[O-] | > 100 µM | > 100 µM | > 100 µM | > 100 µM | > 100 µM | > 100 µM | > 100 µM | > 100 µM |  |  |  | > 100 µM |  |  |  |  |  |  |  | 
CC1(C)CC(/C=C2/OC(=O)c3ccccc32)=C(C#N)C(=O)O1 | > 100 µM | > 100 µM | > 100 µM | > 100 µM | > 100 µM | > 100 µM | > 100 µM | > 100 µM |  |  |  | > 100 µM |  |  |  |  |  |  |  | 
COc1cccc(-c2cc(=O)c3cc(N(C)C)ccc3[nH]2)c1 | > 100 µM |  | > 100 µM | > 100 µM and 51.9 µM |  | > 100 µM |  |  | 0.0892 µM and 0.011 µM | 0.00987 µM and 0.00403 µM | 0.00495 µM and 0.00224 µM | 0.188 µM and 0.0233 µM | 0.0111 µM and 0.00264 µM | 0.0621 µM and 0.00853 µM | 0.0153 µM and 0.00266 µM | 0.0209 µM and 0.00582 µM | 0.0354 µM and 0.012 µM |  |  | 
CCCCN(CCCC)C(=O)C(=O)C(C#N)c1ccc(C)cc1 (stereo unspecified) | > 100 µM | > 100 µM | > 100 µM | > 100 µM | > 100 µM | > 100 µM | > 100 µM | > 100 µM |  |  |  |  |  | > 100 µM |  |  |  |  |  | 
CSc1ccc(C2=NN(C(C)=O)C(c3cc(C)cs3)C2)cc1 (stereo unspecified) | > 100 µM | > 100 µM | > 100 µM | > 100 µM | > 100 µM | 97.5 µM | > 100 µM | > 100 µM | 30.1 µM | 25.5 µM |  |  | 11.8 µM | 29.8 µM | 23.9 µM | 37 µM | 24.2 µM | 26.2 µM | 24.6 µM | 15.3 µM
Cc1nc2c(nc1Cl)nc(Oc1ccc(Cl)cc1)c1ccccc12 | > 100 µM | > 100 µM | > 100 µM | > 100 µM | > 100 µM | > 100 µM | > 100 µM | > 100 µM |  |  |  | > 100 µM |  |  |  |  |  |  |  | 
O=C1CNCCCN2CCN(CCCNCC(=O)Nc3ccc(cc3)S(=O)(=O)c3ccc(cc3)NC(=O)CNCCCN3CCN(CCCNCC(=O)Nc4ccc(cc4)S(=O)(=O)c4ccc(cc4)N1)CC3)CC2 | > 80.9 µM | > 89.4 µM | > 56.8 µM | > 61.5 µM | > 54.8 µM | 24.2 µM | 64 µM | > 100 µM |  |  |  |  |  |  |  |  |  |  |  | 
CCCCC/C(C=C(C#N)C#N)=C/c1ccccc1 | 16.9 µM | 11.2 µM | 8.57 µM | 16.5 µM | 27.5 µM | 16.5 µM | 5.78 µM | 5.47 µM | 4.53 µM | 3.11 µM |  |  | 2.39 µM | 6.32 µM | 2.26 µM | 2.86 µM | 2.17 µM | 3.74 µM | 5.13 µM | 1.92 µM
COC(=O)C(/C(=N/NC(N)=O)C(=O)Nc1ccc(C)cc1)c1nc2ccc([N+](=O)[O-])cc2[nH]c1=O (stereo unspecified) | > 100 µM | > 100 µM | > 100 µM |  | > 100 µM | > 100 µM | > 100 µM | > 100 µM |  |  |  | > 100 µM |  |  |  |  |  |  |  | 
CCCCCCCCCCCCCC(=O)OC1CC(=O)OC1CO (stereo unspecified) | > 100 µM | > 100 µM |  | > 100 µM | 38.4 µM | > 100 µM | > 100 µM | 73.5 µM |  |  |  |  |  | 63.9 µM |  |  |  |  |  | 
Clc1ccc(C2N3CCCCC3[C@@H]3c4[nH]c5ccccc5c4CCN23)cc1 (stereo partly specified) | > 100 µM | > 100 µM | > 100 µM | > 100 µM | > 100 µM | 90.4 µM | > 100 µM |  |  |  |  |  |  | 55 µM |  |  |  |  |  | 
Cc1ccc(CS/C(=C\c2ccc([N+](=O)[O-])cc2)C(=O)c2ccc(F)cc2)cc1 | 9.48 µM | 4.02 µM | 26.5 µM | 3.1 µM |  | 10.4 µM | 3.51 µM | 3 µM | 1.73 µM | 2.86 µM |  |  | 2.9 µM | 17.3 µM | 1.95 µM | 5.46 µM | 1.64 µM | 2.98 µM |  | 0.458 µM
O=C1c2cccc(NCCN=Cc3cc(O)ccc3O)c2C(=O)c2c(NCCN=Cc3cc(O)ccc3O)cccc21 | 3.9 µM | 4.28 µM | 3.66 µM | 8.93 µM | 10.5 µM |  |  | 2.25 µM | 2.05 µM |  | 0.601 µM | 3.1 µM | 1.63 µM | 4.19 µM | 1.63 µM | 1.77 µM | 0.762 µM | 0.737 µM | 2.84 µM | 
COc1cc(/C=C/c2cc(/C=C/c3ccc(O)c(OC)c3)n(-c3ccccc3)n2)ccc1O | 2.2 µM | 0.938 µM | 2.72 µM |  |  |  |  |  |  |  | 0.0353 µM | > 100 µM | 0.271 µM | 0.774 µM | 0.266 µM | 0.386 µM |  | 0.313 µM |  | 
Cc1nn(CN2CCN(C)CC2)c(=S)n1/N=C/c1cccc2ccccc12 | 39.2 µM | 36 µM | 34.3 µM | 38.4 µM | 33.5 µM |  | 39.9 µM | 31.4 µM | 20.1 µM |  | 19 µM | 38.5 µM | 16.7 µM | 37 µM | 18 µM | 17 µM | 17.6 µM | 24.4 µM | 16 µM | 17.4 µM
